Experimental data: DBAASP
Converted amounts (≈) assume the structure as drawn. “And” between values parts separate entries of the source, which are not always exact repeats. Equal values may be shown once. Values belong to the molecule of their own block, whether it stands above or below them.

Legend:
Assay in all cases: ≥ marks a high value that may be exact or a test limit, other limits are often not marked, values filed in µg/mL are converted to µM
[1] = system: Acinetobacter baumannii 4-MRGN
[2] = system: Pseudomonas aeruginosa ATCC 27853
Enterococcus faecium = system: Enterococcus faecium
Staphylococcus aureus = system: Staphylococcus aureus
Candida tropicalis = system: Candida tropicalis
Escherichia coli = system: Escherichia coli
Pseudomonas aeruginosa = system: Pseudomonas aeruginosa
[3] = system: Candida krusei NRRL Y-27803
[4] = system: Acinetobacter baumannii ATCC 17978
[5] = system: Pseudomonas aeruginosa ATCC 19660
Staphylococcus aureus MR = system: Staphylococcus aureus MR
[6] = system: Candida albicans NRRL Y-326
[7] = system: Fusarium solani NRRL 28548
[8] = system: Staphylococcus aureus ATCC 33592
[9] = system: Candida parapsilosis NRRL Y-1761
[10] = system: Staphylococcus aureus ATCC 25923
[11] = system: Mucor circinelloides NRRL 3631
[12] = system: Escherichia coli ATCC 25922
[13] = system: Klebsiella pneumoniae ATCC 10031
[14] = system: Staphylococcus epidermidis ATCC 51625
Aspergillus fumigatus = system: Aspergillus fumigatus
[15] = system: Aspergillus flavus ATCC MYA-3651
[16] = system: Lichtheimia corymbifera NRRL 6251
Enterobacter cloacae = system: Enterobacter cloacae
[17] = system: Cryptococcus neoformans ATCC 32045
[18] = system: Staphylococcus aureus ATCC 33591
[19] = system: Escherichia coli ATCC 2592
[20] = system: Pseudomonas aeruginosa ATCC 10145
[21] = system: Candida albicans ATCC 10231
[22] = system: Pseudomonas aeruginosa PAO1
Bacillus subtilis 168 = system: Bacillus subtilis 168
[23] = system: Staphylococcus aureus MU50
[24] = system: Staphylococcus aureus Newman
[25] = system: Staphylococcus epidermidis 1457
[26] = system: Staphylococcus aureus USA 400
[27] = system: Candida tropicalis ATCC 13803
[28] = system: Staphylococcus aureus USA 300
[29] = system: Staphylococcus aureus UAMS-1
[30] = system: Staphylococcus aureus USA 200
[31] = system: Candida glabrata ATCC 2001
[32] = system: Klebsiella pneumoniae ATCC 13883

- MIC (Staphylococcus aureus): 2.72 µM (≈ 5.65 µg/mL)
- MIC [3]: 30.7 µM (≈ 64 µg/mL)
- MIC [4]: 7.69 µM (≈ 16 µg/mL)
- MIC [2]: 2.88 µM and 7.69 µM
- MIC [5]: 15.4 µM (≈ 32 µg/mL)
- MIC (Staphylococcus aureus MR): 3.84 µM (≈ 8 µg/mL)
- MIC [6]: 30.7 µM (≈ 64 µg/mL)
- MIC [7]: 0.961 µM (≈ 2 µg/mL)
- MIC [8]: 3.84 µM (≈ 8 µg/mL)
- MIC [9]: 30.7 µM (≈ 64 µg/mL)
- MIC [10]: 2.88 µM (≈ 6 µg/mL)
- MIC [11]: ≥ 61.5 µM
- MIC [12]: 2.88 µM (≈ 6 µg/mL)
- MIC [13]: 15.4 µM (≈ 32 µg/mL)
- MIC [14]: 1.92 µM (≈ 4 µg/mL)
- MIC (Aspergillus fumigatus): ≥ 43.5 µM
- MIC [15]: ≥ 61.5 µM
- MIC [16]: 0.961 µM (≈ 2 µg/mL)
- MIC (Enterobacter cloacae): 2.72 µM (≈ 5.65 µg/mL)
Structure (SMILES): CC[C@H](C)[C@H](NC(=O)[C@H](CCCCN)NC(=O)[C@H](C)NC(=O)[C@H](CCCN=C(N)N)NC(=O)[C@H](CC(C)C)NC(=O)[C@H](CCCN=C(N)N)NC(=O)[C@@H](NC(=O)[C@H](CCCCN)NC(=O)[C@@H](NC(=O)[C@H](CCCCN)NC(=O)[C@H](C)NC(=O)[C@H](CCCN=C(N)N)NC(=O)[C@H](CC(C)C)NC(=O)[C@H](CCCCN)NC(=O)[C@@H](N)Cc1ccccc1)[C@@H](C)CC)C(C)C)C(=O)N[C@@H](CCCCN)C(=O)N[C@@H](CC(C)C)C(N)=O [FKLRAKIKVRLRAKIKL]

- MIC [17]: ≥ 32.9 µM
- MIC [18]: ≥ 73.6 µM
- MIC [19]: 25.9 µM (≈ 88 µg/mL)
- MIC [20]: ≥ 36.8 µM
- MIC [21]: 104 µM (≈ 354 µg/mL)
Structure (SMILES): CC(C)C[C@H](NC(=O)[C@H](CCCCN)NC(=O)[C@H](CCCCN)NC(=O)[C@H](CC(C)C)NC(=O)[C@H](CC(C)C)NC(=O)[C@H](CCCCN)NC(=O)[C@H](CCCCN)NC(=O)[C@H](CC(C)C)NC(=O)[C@H](CC(C)C)NC(=O)[C@H](CCCCN)NC(=O)[C@H](CCCCN)NC(=O)[C@H](CC(C)C)NC(=O)[C@H](CC(C)C)NC(=O)[C@H](CCCCN)NC(=O)[C@H](CCCCN)NC(=O)[C@H](CC(C)C)NC(=O)[C@H](CC(C)C)NC(=O)[C@H](CCCCN)NC(=O)[C@H](CCCCN)NC(=O)[C@H](CC(C)C)NC(=O)[C@H](CC(C)C)NC(=O)[C@H](CCCCN)NC(=O)[C@H](CCCCN)NC(=O)[C@H](CC(C)C)NC(=O)[C@H](CC(C)C)NC(=O)[C@H](CCCCN)NC(=O)[C@H](CCCCN)NC(=O)[C@@H](N)CC(C)C)C(=O)O [LKKLLKKLLKKLLKKLLKKLLKKLLKKL]

- MIC [22]: > 50 µM
- MIC (Bacillus subtilis 168): 6.3 µM (≈ 9.76 µg/mL)
- MIC [23]: 6.2 µM (≈ 9.61 µg/mL)
- MIC [24]: 3.1 µM (≈ 4.8 µg/mL)
- MIC [25]: 3.1 µM (≈ 4.8 µg/mL)
- MIC [26]: 3.1 µM (≈ 4.8 µg/mL)
- MIC [27]: 3.1 µM (≈ 4.8 µg/mL)
- MIC [28]: 3.1 µM (≈ 4.8 µg/mL)
- MIC [12]: > 50 µM
- MIC [29]: 25 µM (≈ 38.7 µg/mL)
- MIC [30]: 3.1 µM (≈ 4.8 µg/mL)
- MIC [31]: 12.5 µM (≈ 19.4 µg/mL)
- MIC [21]: 12.5 µM (≈ 19.4 µg/mL)
- MIC [32]: ≥ 50 µM
Structure (SMILES): CC[C@H](C)[C@H](NC(=O)[C@@H](NC(=O)[C@@H]1CCCN1C(=O)[C@H](CC(C)C)NC(=O)[C@@H](NC(=O)[C@@H](N)CO)[C@@H](C)CC)[C@@H](C)O)C(=O)N[C@H](C(=O)N[C@@H](CO)C(=O)N[C@@H](Cc1ccccc1)C(=O)N[C@@H](CC(C)C)C(=O)N[C@@H](CO)C(=O)N[C@@H](CCCCN)C(=O)N[C@H](C(=O)N[C@@H](Cc1ccccc1)C(N)=O)C(C)C)C(C)C [SILPTIVSFLSKVF]

Second part, the molecule before the results:

Structure (SMILES): CC[C@H](C)[C@H](NC(=O)[C@H](CCC(=O)O)NC(=O)[C@@H]1CSSC[C@@H]2NC(=O)[C@H](Cc3ccc(O)cc3)NC(=O)[C@@H](NC(=O)[C@@H](NC(=O)[C@H](C)N)[C@@H](C)O)CSSC[C@H](NC(=O)[C@H](CCCN=C(N)N)NC(=O)CNC(=O)[C@H]([C@@H](C)O)NC(=O)[C@H](CCCN=C(N)N)NC2=O)C(=O)N[C@@H](C)C(=O)N[C@@H]([C@@H](C)O)C(=O)N[C@@H](CCCN=C(N)N)C(=O)N[C@@H](CCC(=O)O)C(=O)N[C@@H](CO)C(=O)N[C@@H](CC(C)C)C(=O)N[C@@H](CO)C(=O)NCC(=O)N[C@@H](C(C)C)C(=O)N1)C(=O)N[C@@H](CO)C(=O)NCC(=O)N[C@@H](CCCN=C(N)N)C(=O)N[C@@H](CC(C)C)C(=O)N[C@@H](Cc1ccc(O)cc1)C(=O)N[C@@H](CCCN=C(N)N)C(=O)O [ATCYCRTGRCATRESLSGVCEISGRLYR]
- MIC [1]: ≥ 99.9 µM
- MIC [2]: > 99.9 µM
- MIC (Enterococcus faecium): ≥ 99.9 µM

Structure (SMILES): CSCC[C@@H]1NC(=O)[C@H](CC(C)C)NC(=O)[C@H](CCCNC(=N)N)NC(=O)[C@H](CO)NC(=O)[C@@H]2CSSC[C@@H]3NC(=O)[C@H](CO)NC(=O)CNC(=O)[C@H]([C@@H](C)O)NC(=O)[C@H](CSSC[C@H](N)C(=O)N[C@@H](CCCCN)C(=O)NCC(=O)N[C@@H](CCCCN)C(=O)NCC(=O)N[C@@H](C)C(=O)N[C@@H](CCCCN)C(=O)N2)NC(=O)[C@H](CSSC[C@@H](C(N)=O)NC(=O)[C@H](CCCCN)NC(=O)CNC(=O)[C@H](CO)NC(=O)[C@H](CCCNC(=N)N)NC3=O)NC(=O)[C@H](CC(=O)O)NC(=O)[C@H](Cc2ccc(O)cc2)NC1=O [CKGKGAKCSRLMYDCCTGSCRSGKC]
- MIC (Staphylococcus aureus): > 500 µM
- MIC (Candida tropicalis): ≥ 39.8 µM
- MIC (Escherichia coli): > 500 µM
- MIC (Pseudomonas aeruginosa): > 500 µM
